Data set [1] concerns Acinetobacter baumannii strain AB03. Description: Carbapenem-resistant Acinetobacter baumannii sepsis infection model. The data set is classed as in vivo. To be noted: 40 mg/kg/day, 3 days treatment, A. baumannii AB03 septic mice. As for the experimental part:
For establishing the carbapenem-resistant Acinetobacter baumannii sepsis infection model, 12 mice were separated in each group and were infected with the standard Acinetobacter baumannii strain AB03 with lethal dosage by intraperitoneal injection. The compound (c) was given to test groups at the dosage of 0.33, 1.67 and 3.33 mg/kg/day for 3 days treatment, respectively. The clinical standard therapy colistin methanesulfonate (CMS) (40 mg/kg/day) was selected as compared drug. 1×PBS was given as placebo group. Mice survival rate were observed four times a day and were recorded as the curve.

In data set [2] the test system is Pseudomonas aeruginosa strain PA13. In words: MIC in cation-adjusted Muller-Hinton broth. Format: cell-based. From the text:
(§1) Compound (c) was therefore used for further evaluation of anti-bacterial activities to carbapenem resistant bacteria involving Escherichia coli, Klebsiella pneumoniae, Pseudomonas aeruginosa, and Acinetobacter baumannii in the following experiments.

The test system of data set [3] is Klebsiella pneumoniae strain CRE-723. Description: MIC in cation-adjusted Muller-Hinton broth. The data set is classed as cell-based.
Text: as §1

The next data set has as its system Escherichia coli CRE-415. Description: MIC in cation-adjusted Muller-Hinton broth. Format: cell-based.
Text: as §1

Data set [4] deals with Acinetobacter baumannii strain AB03. Description: MIC in cation-adjusted Muller-Hinton broth. The data set is classed as cell-based.
Text: as §1

For data set [5], the system named is Klebsiella pneumoniae ATCC BAA-1705. Description: MIC in cation-adjusted Muller-Hinton broth. The data set is classed as cell-based.
Text: as §1

The nature of data set [6]: Acute toxicity test (survival, LD50). The data set is classed as in vivo. To be noted: male mice; for survival rate: one week observation. As for the experimental part: In terms of acute toxicology, the dose-response relationship is represented in S-shaped curve. It is not easy to obtain the LD50 value directly through the experiment. Therefore, the animal survival rate of 20˜80% must be used as the benchmark, and the LD50 value is obtained by calculating the dose and survival rate of the area. Six male mice of each group were injected with 15, 20, and 25 mg/kg of compound (c) by intraperitoneal injection. After a week of behavior and physiological observations, the survival rate was recorded and applied for linear regression.

The nature of data set [7]: Histopathological lesion evaluation and severity score of surviving mice. The data set is classed as in vivo. As for the experimental part: In the experiment, 2 mice in the 20 and 25 mg/kg groups were randomly selected for euthanasia, the tissues involving heart, liver, spleen, lung, kidney, stomach, small intestine, large intestine, pancreatic were sliced and stained and were used for histopathological lesion evaluation and severity score by a professional pathology veterinarian (Disease Animal Special Certificate No. 0040).
Extremely light to slight monocyte infiltration in the heart was a lesion that were occasionally observed by a normal mouse might be irrelevant to experimental disposal, and a small number of monocyte infiltration cells could be observed in the portal vein area of the liver of most mice. Mild to moderate hepatocyte glycogen deposition were found in all mice, and significant swollen occurred in their liver cells, this was a common background lesions in normal mice in the case of sacrifice without sufficient fasting. It was worth noting that slight necrosis of the liver was only seen in No. 25-2. Increased mitosis in liver cell is one of the common regeneration or hyperplasia reactions for liver tissue damage. Compared with normal liver tissue, damaged liver tissue may have more mitosis cells, but it is also occasionally seen in normal mice. The mice of Nos. 20-1 and 25-2 had extremely slight to mild hepatocytes increased mitosis. It might be irrelevant to experimental disposal since the degree of increased mitosis was extremely mild to mild and was not related to the dose. Extramedullary hematopoiesis (EMH) are common lesions of mice liver tissue, it can be considered as background lesion if the degree is extremely mild. […] Besides, EMH is also common lesions occurred in spleen of mice and may exist in normal mice, the mild degree of EMH may be therefore considered as background lesions. Extremely mild to mild EMH lesions were found in spleen tissues of all mice. It could be found in the number 25-2 mouse spleen that its lymphoid follicle had multiple extremely mild apoptosis lesions, but no tissue necrosis was found. […] Chronic progressive nephropathy (CPN) involving lesions of tubule basophilia, basement membrane thickening, mononuclear inflammatory cells infiltration, glomerulosclerosis, or tubule dilatation is the most common kidney lesions in the kidney tissues of mice. The cause of CPN is unknown, it can be found in normal mice, and the incidence is increased depend on ages, male mice have a higher incidence than female mice. Therefore, it is generally not recommended to score CPN lesion separately. CPN may also occur after drug administration, it should be considered as treatment-related lesions if the severities have a significant difference in group differences. In this study, there were moderate or higher CPN lesions in each mouse kidney tissue, except for mouse of No. 25-2. However, the difference was not related to the dose and might not be related to the experimental disposal.

In data set [8] the test system is carbapenem-resistant Acinetobacter baumannii isolated from infected blood (n = 28). In words: MICs in carbapenem-resistant isolate panel. To be noted: A. baumannii (n = 28). The data set is classed as cell-based.
Text: as §1
(§2) 34 carbapenem-resistant Klebsiella pneumoniae, 34 carbapenem-resistant Escherichia coli, 29 carbapenem-resistant Pseudomonas aeruginosa isolated from infected blood, and 28 carbapenem-resistant Acinetobacter baumannii isolated from infected blood were selected to evaluate the anti-bacterial activities of compounds (c).

Data set [9] relates to carbapenem-resistant Escherichia coli (n = 34). In words: MICs in carbapenem-resistant isolate panel. Format: cell-based. Particulars: E. coli (n = 34).
Text: as §1, §2

The subject of data set [10] is carbapenem-resistant Klebsiella pneumoniae (n = 34). In words: MICs in carbapenem-resistant isolate panel. Format: cell-based. To be noted: K. pneumoniae (n = 34).
Text: as §1, §2

In data set [11] the test system is carbapenem-resistant Pseudomonas aeruginosa isolated from infected blood (n = 29). Description: MICs in carbapenem-resistant isolate panel. The data set is classed as cell-based. Particulars: P. aeruginosa (n = 29).
Text: as §1, §2

Setting [12] is: PA13, read-out: MIC P. aeruginosa strain PA13.
Where [13] appears, read: CRE723, read-out: MIC K. pneumoniae strain CRE-723.
Where [14] appears, read: CRE415, read-out: MIC E. coli CRE-415.
[15] abbreviates: AB03, read-out: MIC A. baumannii strain AB03.
[16] abbreviates: ATCCBAA1705, read-out: MIC K. pneumoniae ATCC BAA-1705.
Setting [17] is: 20 mg/kg, mice 20-1, 20-2, day 7.
The mark [18] stands for this setting: 25 mg/kg, mice 25-1, 25-2, day 7.

Values joined by “and” are separate entries in the source; they are usually repeats but may differ in a detail not shown here. Equal values may be shown once. Read-outs that look alike come from different tables or passages of the source.

A word on the MIC: it is the smallest concentration in the dilution series that meets the test's criterion for growth inhibition. Usually LD50 stands for the dose expected to kill half of the subjects tested. The MIC50 is the lowest concentration that inhibits either 50% of growth or 50% of the strains tested, depending on the study. Lower therefore signals higher susceptibility. A word on the MIC90: it is the lowest concentration that inhibits either 90% of growth or 90% of the strains tested, depending on the study.

As to colistin methanesulfonate [CMS], the survival rate in [1] is reported as 16.7%.
For the compound `Cc1ccc2[n+](c1)[TeH](Cl)(Cl)(Cl)[n+]1cc(C)ccc1-2` [compound (h)], the minimal inhibitory concentration (MIC) came to 8 µg/mL in data set [2] (setting [12]); 16 µg/mL in data set [3] (setting [13]); 4 µg/mL with Escherichia coli CRE-415 (setting [14]); 4 µg/mL in data set [4] (setting [15]); 8 µg/mL in [5] (setting [16]).
`Cc1cc[n+]2c(c1)-c1cc(C)cc[n+]1[TeH]2(Cl)(Cl)Cl` [compound (g)]: the minimum inhibitory concentration (MIC) in data set [2] (setting [12]) came to 4 µg/mL; in data set [3] (setting [13]), 16 µg/mL; in the data set on Escherichia coli CRE-415 (setting [14]) it was 16 µg/mL; in data set [4] (setting [15]), 4 µg/mL; in data set [5] (setting [16]), 16 µg/mL.
In the case of `Cl[TeH]1(Cl)(Cl)[n+]2ccccc2-c2cccc[n+]21` [compound (b)], the minimum inhibitory concentration (MIC) worked out at 4 µg/mL in data set [2] (setting [12]); 16 µg/mL in [3] (setting [13]); 4 µg/mL in the data set with Escherichia coli CRE-415 (setting [14]); 2 µg/mL in data set [4] (setting [15]); 16 µg/mL in [5] (setting [16]).
For the compound `Cl[TeH]1(Cl)(Cl)[n+]2ccccc2SSc2cccc[n+]21` [compound (e)], the minimum inhibitory concentration (MIC) in data set [2] (setting [12]) came to 16 µg/mL; in data set [3] (setting [13]), 32 µg/mL; in the data set with Escherichia coli CRE-415 (setting [14]) it was 4 µg/mL; in data set [4] (setting [15]), 4 µg/mL; in [5] (setting [16]), 16 µg/mL.
With `Cl[Te]1(Cl)Nc2ccccc2N1` [compound (a)], the MIC in data set [2] (setting [12]) is 2 µg/mL; in data set [3] (setting [13]), 2 µg/mL; in the data set with Escherichia coli CRE-415 (setting [14]) it was 1 µg/mL; in [4] (setting [15]) it was 1 µg/mL; in data set [5] (setting [16]), 4 µg/mL.
As to `[2H]C1([2H])O[TeH](Cl)(Cl)(Cl)OC1([2H])[2H]` [compound (d)], the MIC was determined as 1 µg/mL in data set [2] (PA13, CAMHB, read-out: MIC P. aeruginosa strain PA13); 8 µg/mL in data set [3] (CRE723, CAMHB, read-out: MIC K. pneumoniae strain CRE-723); 1 µg/mL with Escherichia coli CRE-415 (CRE415, CAMHB, read-out: MIC E. coli CRE-415); 1 µg/mL in data set [4] (AB03, CAMHB, read-out: MIC A. baumannii strain AB03); 8 µg/mL in data set [5] (ATCCBAA1705, CAMHB, read-out: MIC K. pneumoniae ATCC BAA-1705).
Turning to `Cl[TeH]1(Cl)(Cl)[n+]2cccc3ccc4ccc[n+]1c4c32` [compound (f)], the MIC in data set [2] (setting [12]) was found to be 2 µg/mL; in data set [3] (setting [13]) it was 4 µg/mL; with Escherichia coli CRE-415 (setting [14]), 8 µg/mL; in data set [4] (setting [15]), 1 µg/mL; in data set [5] (setting [16]), 8 µg/mL.
`CN1CCN(C)[TeH]1(Cl)(Cl)Cl` [compound (c)] returned a survival rate in data set [6] (15 mg/kg intraperitoneal) of 100%. Also, the survival rate in data set [6] (20 mg/kg intraperitoneal) came to 83.3%. The compound also came in with a survival rate in data set [6] (25 mg/kg intraperitoneal) of 33.3%. This compound gave an LD50 in [6] (intraperitoneal, linear regression of 20 and 25 mg/kg survival) of 23.3 mg/kg. Further, in [7] (setting [17]), the “Heart Mononuclear cells infiltration severity score” value is on record as 0; the “Heart Necrosis/ degeneration severity score” value was 0; the “Kidney Nephropathy, chronic progressive (CPN) severity score” value is 3 and 4; the “Large intestine Erosion/ ulcer severity score” value is on record as 0. Also, in data set [7] (setting [17]), the “Large intestine Mononuclear cells infiltration severity score” value came to 0; the “Liver Extramedullary hematopoiesis, EMH severity score” value was 1 and 2; the “Liver Glycogen deposition severity score” value was 3 and 4; the “Liver Increased mitosis severity score” value came out at 0. In [7] (setting [17]), the “Liver Necrosis/ degeneration severity score” value is 0, the “Lung Mononuclear cells infiltration severity score” value turned out to be 0, the “Lung Necrosis/ degeneration severity score” value was 0 and the “Pancreas Mononuclear cells infiltration severity score” value is given as 0. In data set [7] (setting [17]), the “Pancreas Necrosis severity score” value was 0, the “Small intestine Erosion/ ulcer severity score” value stood at 0, the “Small intestine Mononuclear cells infiltration severity score” value is on record as 0 and the “Spleen Apoptosis severity score” value came out at 0. Moreover, in data set [7] (setting [17]), the “Spleen Extramedullary hematopoiesis, EMH severity score” value stood at 2; the “Spleen Necrosis severity score” value is given as 0; the “Stomach Erosion/ ulcer severity score” value came out at 0; the “Stomach Mononuclear cells infiltration severity score” value turned out to be 0. Besides, in data set [7] (setting [18]), the “Heart Necrosis/ degeneration severity score” value is reported as 0, the “Large intestine Erosion/ ulcer severity score” value amounted to 0, the “Large intestine Mononuclear cells infiltration severity score” value was found to be 0 and the “Liver Increased mitosis severity score” value is on record as 0. Moreover, in data set [7] (setting [18]), the “Liver Mononuclear cells infiltration severity score” value was determined as 1, the “Lung Mononuclear cells infiltration severity score” value is listed as 0, the “Lung Necrosis/ degeneration severity score” value turned out to be 0 and the “Pancreas Mononuclear cells infiltration severity score” value was found to be 0. For the same compound, in data set [7] (setting [18]), the “Pancreas Necrosis severity score” value amounted to 0; the “Small intestine Erosion/ ulcer severity score” value amounted to 0; the “Small intestine Mononuclear cells infiltration severity score” value was found to be 0; the “Spleen Extramedullary hematopoiesis, EMH severity score” value is 2 and 1. Further, in data set [7] (setting [18]), the “Spleen Necrosis severity score” value is reported as 0, the “Stomach Erosion/ ulcer severity score” value is recorded as 0 and the “Stomach Mononuclear cells infiltration severity score” value came out at 0.
On to `Cl[TeH]1(Cl)(Cl)OCCO1` [AS101], for which the MIC range in data set [8] is on record as <0.5~8 μg/mL; in [9], 0.5~32 μg/mL; in data set [10], <0.5~16 μg/mL. The MIC50 in data set [8] (Acinetobacter baumannii) was determined as 2 µg/mL; in [9] (Escherichia coli), 4 µg/mL; in [10] (Klebsiella pneumoniae) it was 2 µg/mL; in data set [11] it was 64 µg/mL. The MIC90 was 4 µg/mL in [8] (Acinetobacter baumannii), 8 µg/mL in [9] (Escherichia coli), 16 µg/mL in [10] (Klebsiella pneumoniae) and > 64 µg/mL in [11].

For the origin of these results see patent US20250059144A1, “Tellurium-containing compounds and the use of treating bacterial infections thereof” (Kaohsiung Medical University, priority 2021, published 2025).
